Results reported in patent US20020198254A1, “Polyamide analogs” (priority 2000, published 2002).
Converted amounts (≈) assume the structure as drawn. Read-outs that look alike come from different tables or passages of the source.

What was measured:
Format in all cases: cell-based
Bacillus cereus = experiment: MIC assay, B. cereus; settings: CAMHB, 16 h; for MIC: Bacillus cereus, read-out: MIC Assay Other Strains: B. cereus
Protocol: (§1) These assays are adapted from NCCLS protocols M7-A4 and M27-A (NCCLS vol 17:9 and vol 17:2) as modified by Sandven, S. Clin. Micro. (1999) 37:12, p.3856-3859. MIC values for Aspergillus fumigatus were determined using NCCLS protocol M38-P.
(§2) All compounds were dissolved in 100% DMSO to a stock concentration of 10 mM and use fresh or stored at −80° C. Stock compounds were kept frozen until needed and used freshly with no more then one freeze-thaw cycle. When used for test purposes, compounds were diluted in the appropriate media depending on the organism being tested.
(§3) For yeast and aspergillus species, seven 1:2 serial dilutions of compound in appropriate media buffered with MOPS at pH 7.0 were prepared such that the final starting test compound concentrations were 50.0 uM for yeast and 50 uM aspergillus species. For bacteria, dilutions were made in growth media used for the particular bacteria being tested.
(§4) Inoculums are made in the same manner as yeast except all dilutions are made in normal saline, with a final dilution of 1:200 and an inoculum of 10 μL. VRE are vancomycin resistant enterococci, BM4147 and UCD-3 represent two different sources of VRE. MRSA are […] resistant Staphylococcus Aureus.

Candida albicans = experiment: MIC assay, yeast C. albicans; settings: RPMI, 48 h, Alamar Blue; for MIC: Candida albicans
Aspergillus fumigatus = experiment: MIC assay, filamentous fungi A. fumigatus; settings: 48 h at 35C, no visible growth; for MIC: Aspergillus fumigatus
E coli = experiment: MIC assay, E coli
Protocol: as §1, §2, §3, §4

WST-CEM T-cell line = experiment: Toxicity screen on WST-CEM T-cell line
Protocol: Toxicity screen was done on a WST-CEM T-cell line and the minimum percent verses a no drug control was measured.

[1] = tested on: VRE-UCD3 (vancomycin resistant enterococci); experiment: MIC assay, VRE strain UCD-3; settings: 25 μg/mL Vancomycin - 24 h; for MIC: Enterococcus, VRE, read-out: MIC Assay VRE Strains: UCD-3 van25
Protocol: as §1, §2, §3, §4

[2] = tested on: VRE-BM4147 (vancomycin resistant enterococci); experiment: MIC assay, VRE strain BM4147; settings: 25 μg/mL Vancomycin - 24 h; for MIC: Enterococcus, VRE, read-out: MIC Assay VRE Strains: BM4147 van25
Protocol: as §1, §2, §3, §4

Pseudomonas aeruginosa = experiment: MIC assay, P. aeruginosa; settings: CAMHB, 16 h
Protocol: as §1, §2, §3, §4

Staphylococcus aureus = experiment: MIC assay, S. aureus; settings: CAMHB, 16 h
Protocol: as §1, §2, §3, §4

[3] = tested on: MRSA (methylacillin resistant Staphylococcus Aureus); experiment: MIC assay, MRSA; settings: for MIC: Staphylococcus aureus, MRSA
Protocol: as §1, §2, §3, §4

[4] = WST-CEM T-cell line, ND = no drug control

Compound | MIC Assay Other Strains: B. cereus (Bacillus cereus) | MIC Assay C. Albicans (Candida albicans) | MIC Assay A fumigatus (Aspergillus fumigatus) | MIC Assay E coli (E coli) | CEM: toxicity screen, minimum percent verses a no drug control (WST-CEM T-cell line; [4]) | MIC Assay VRE Strains: UCD-3 van25 [1] | MIC Assay VRE Strains: BM4147 van25 [2] | MIC Assay Other Strains: P. aeruginosa (Pseudomonas aeruginosa) | MIC Assay Other Strains: S. aureus (Staphylococcus aureus) | MIC Assay MRSA [3] | CEM: toxicity screen, minimum percent verses a no drug control (WST-CEM T-cell line) | MIC [1] | MIC [2] | MIC (Bacillus cereus) | MIC (Candida albicans) | MIC (Aspergillus fumigatus) | MIC (E coli) | MIC [3]
CC(C)CCn1cc(NC(=O)CN)cc1C(=O)Nc1ccc2ccc(NC(=O)c3cc(NC(=O)CN)cn3CCC(C)C)cc2c1 [Compound 188b] | 22.7 µM (≈ 14.3 µg/mL) | 22.2 µM (≈ 14 µg/mL) | >50 µM | 22.7 µM (≈ 14.3 µg/mL) | 9.2% ND |  |  |  |  |  |  |  |  |  |  |  |  | 
1,5-bis-{4-[(NH2(CH2)2CONH)-1-methyl-1H-pyrrol-2-yl-carbonylamino]-benzimidazole [Compound 77] | 22.7 µM | >44.4 µM |  |  |  | >45.5 µM | >45.5 µM | >45.5 µM | 45.5 µM |  |  |  |  |  |  |  |  | 
CC(C)C(N)C(=O)Nc1cc(C(=O)NCCNC(=O)c2cc(NC(=O)C(N)C(C)C)cn2CC2CC2)n(CC2CC2)c1 (stereo not drawn) [Compound 170, Bis-1,2-[4-(2-amino-3-methyl-butyrylamino)-1-cyclopropylmethyl-1H-pyrrol-2-yl-carbonylamino]-ethane] |  | >44.4 µM | >50 µM | >45.5 µM |  | >45.5 µM | >45.5 µM |  |  | >45.5 µM | 90.0% ND |  |  |  |  |  |  | 
NC(Cc1c[nH]cn1)C(=O)Nc1cc(C(=O)NC2CCC(NC(=O)c3cc(NC(=O)C(N)Cc4c[nH]cn4)cn3CC3CC3)CC2)n(CC2CC2)c1 (stereo not drawn) [Compound 173, Bis-trans-1,4-{4-[2-amino-3-(1H-imidazol-4-yl)propyonylamino]-1-cyclopropylmethyl-1H-pyrrol-2-yl-carbonylamino]cyclohexane] |  | >44.4 µM | >50 µM | >45.5 µM |  | >45.5 µM | >45.5 µM |  |  | >45.5 µM | 87.2% ND |  |  |  |  |  |  | 
CC(C)CCn1cc(NC(=O)CNC(=N)N)cc1C(=O)Nc1ccc(NC(=O)c2cc(NC(=O)CNC(=N)N)cn2CCC(C)C)cc1 [Compound 189a] |  |  |  |  | 7.7% ND |  |  |  |  |  |  | 11.4 µM | 11.4 µM | 2.8 µM (≈ 1.86 µg/mL) | 22.2 µM (≈ 14.7 µg/mL) | 12.5 µM (≈ 8.28 µg/mL) | 11.4 µM (≈ 7.56 µg/mL) | 
Cn1cc(NC(=O)CNC(=N)N)cc1C(=O)Nc1ccc2[nH]c(NC(=O)c3cc(NC(=O)CNC(=N)N)cn3C)nc2c1 [Compound 79] | 11.4 µM (≈ 6.73 µg/mL) |  |  |  |  | 11.4 µM | 45.5 µM | >45.5 µM | >45.5 µM |  |  |  |  |  |  |  |  | 
NCC(=O)Nc1cc(C(=O)NCCNC(=O)c2cc(NC(=O)CN)cn2CC2CC2)n(CC2CC2)c1 [Compound 169, Bis-1,2-[4-(2-amino-acetylamino)-1-cyclopropylmethyl-1H-pyrrol-2-yl-carbonylamino]-ethane] |  |  |  |  | 100% ND |  |  |  |  |  |  | > 45.5 µM | > 45.5 µM | > 45.5 µM | > 44.4 µM | > 50 µM | 45.5 µM (≈ 22.7 µg/mL) | > 45.5 µM
CC(C)CCn1cc(NC(=O)CN)cc1C(=O)Nc1ccc(NC(=O)c2cc(NC(=O)CN)cn2CCC(C)C)cc1 [Compound 188a] | 22.7 µM (≈ 13.1 µg/mL) | >44.4 µM | >50 µM | 22.7 µM (≈ 13.1 µg/mL) | 6.9% ND | 11.4 µM | 11.4 µM |  |  | 11.4 µM (≈ 6.6 µg/mL) |  |  |  |  |  |  |  | 
CC/N=C(/NCCN(C)C)Nc1cc(C(=O)Nc2ccc(NC(=O)c3cc(N/C(=N/CC)NCCN(C)C)cn3CCC(C)C)cc2)n(CCC(C)C)c1 [Compound 191] |  |  |  |  | 3.7% ND |  |  |  |  |  |  | 11.4 µM |  | 5.7 µM (≈ 4.26 µg/mL) | 11.1 µM (≈ 8.29 µg/mL) | 12.5 µM (≈ 9.34 µg/mL) | 22.7 µM (≈ 17 µg/mL) | 
1,5-bis-{4-[(NH2CH2CONH)-1-methyl-1H-pyrrol-2-yl-carbonylamino]-benzimidazole [Compound 76] | >45.5 µM | >44.4 µM |  |  |  | >45.5 µM | >45.5 µM | >45.5 µM | >45.5 µM |  |  |  |  |  |  |  |  | 
Cn1cc(NC(=O)CCCNC(=N)N)cc1C(=O)Nc1ccc2[nH]c(NC(=O)c3cc(NC(=O)CCCNC(=N)N)cn3C)nc2c1 [Compound 81] | 5.7 µM (≈ 3.69 µg/mL) | 22.2 µM (≈ 14.4 µg/mL) |  |  |  | >45.5 µM | >45.5 µM | >45.5 µM | 45.5 µM (≈ 29.4 µg/mL) |  |  |  |  |  |  |  |  | 
1,5-bis-{4-[(NH2(CH2)3CONH)-1-methyl-1H-pyrrol-2-yl-carbonylamino]-benzimidazole [Compound 78] | 22.7 µM |  |  |  |  | >45.5 µM | >45.5 µM | >45.5 µM | 45.5 µM |  |  |  |  |  |  |  |  | 
O=C(NC1CCC(NC(=O)c2cc(NC(=O)C3CCCN3)cn2CC2CC2)CC1)c1cc(NC(=O)C2CCCN2)cn1CC1CC1 (stereo not drawn) [Compound 171, Bis-trans-1,4-[4-(pyrrolidine-2-carbonyl-amino)-1-cyclopropylmethyl-1H-pyrrol-2-yl-carbonylamino]cyclohexane] |  |  |  |  | 91.1% ND |  |  |  |  |  |  | > 45.5 µM | > 45.5 µM |  | > 44.4 µM | > 50 µM | > 45.5 µM | > 45.5 µM
N=C(N)NCC(=O)Nc1cc(C(=O)NCCNC(=O)c2cc(NC(=O)CNC(=N)N)cn2CC2CC2)n(CC2CC2)c1 [Compound 174] |  |  |  |  | 92.9% ND |  |  |  |  |  |  | > 45.5 µM | > 45.5 µM |  | > 44.4 µM | > 50 µM | > 45.5 µM | > 45.5 µM
NCCCC(N)C(=O)N1CCCC1C(=O)Nc1cc(C(=O)NC2CCC(NC(=O)c3cc(NC(=O)C4CCCN4C(=O)C(N)CCCN)cn3CC3CC3)CC2)n(CC2CC2)c1 (stereo not drawn) [Compound 172, Bis-trans-1,4-{[4-(2,5-diamino-pentanoyl)pyrrolidine-2-carbonyl-amino]-1-cyclopropylmethyl-1H-pyrrol-2-yl-carbonylamino}cyclohexane] |  | >44.4 µM | >50 µM | >45.5 µM |  | >45.5 µM | >45.5 µM |  |  | >45.5 µM | 25.5% ND |  |  |  |  |  |  | 
CC(C)CCn1cc(NC(=O)CNC(=N)N)cc1C(=O)Nc1ccc2ccc(NC(=O)c3cc(NC(=O)CNC(=N)N)cn3CCC(C)C)cc2c1 [Compound 189b] |  |  |  |  | 10.2% ND |  |  |  |  |  |  | 5.7 µM |  | 2.8 µM (≈ 2 µg/mL) |  | 3.1 µM (≈ 2.21 µg/mL) | 45.5 µM (≈ 32.4 µg/mL) | 
Cn1cc(NC(=O)CCNC(=N)N)cc1C(=O)Nc1ccc2[nH]c(NC(=O)c3cc(NC(=O)CCNC(=N)N)cn3C)nc2c1 [Compound 80] | 5.7 µM (≈ 3.53 µg/mL) | >44.4 µM |  |  |  | >45.5 µM | >45.5 µM | >45.5 µM | >45.5 µM |  |  |  |  |  |  |  |  | 
